Source: patent publication US8540983B2, “Debriding composition from bromelain and methods of production thereof” (MediWound Ltd., priority 2004, dated 2013)

Tested on: Debrase esterolytic activity
Assay: Esterolytic activity of Debrase (CLN substrate) and its inhibition by bromelain HPLC fractions
Type: biochemical, Ananas comosus
Details: Debrase + 1 mM Iodoacetamide, pH 4.6
Procedure: Bromelain powder (2.5 g) was suspended in 10 ml of 0.1M potassium phosphate buffer pH 6.1 saturated with phenyl mercury acetate for 10 min. After centrifugation for 10 min (3500 rpm), one ml of the supernatant was applied to gel filtration chromatography on a HiLoad 16/60 Superdex 75 HPLC preparation grade column, equilibrated and eluted with the same buffer. Fractions of 5 ml were collected 30 minutes after sample application. For each of the eluted fractions, three parameters were measured: (i) absorbance at 280 nm (A280); (ii) esterolytic activity; and (iii) inhibition of Debrase esterolytic activity.
The esterolytic activity of the bromelain fractions was assayed spectrophotometrically at pH 4.6 using the chromogenic substrate p-nitrophenyl Na-benzyloxycarbonyl-L-lysinate (CLN) as follows:
One milliliter of sodium acetated buffer (10 mM) containing 0.1 M KCl and 1 mM L-cysteine, pH 4.6 was placed in a plastic cuvette at 25° C. One hundred μl of the eluted fraction (at a concentration of 2.5 mg/ml) were added. The solution was incubated for 2 min and then 50 μl of CLN solution (2.5 mM in acetonitrile 10% water) were added. The cuvette was mixed and the increase in absorbance at 317 nm was monitored for 5 minutes. The spontaneous hydrolysis of the substrate was monitored in the presence of buffer only instead of the eluted fractions.

With `NC(=O)CI` [Iodoacetamide] the “% Inhibition” value was 37.0% and the “Proteolytic activity (esterolytic activity of Debrase)” value was 593.
